Like-named read-outs stand apart in the source and are kept apart here.
How the values were obtained:
[1] = molecular target: T1, CIB1 and αIIb interaction (CIB1-GST : F-αIIb peptide) (Homo sapiens, UniProt Q99828); assay: FP assay, 1536-well qHTS format (primary and confirmatory screen); format: binding
T1 construct: made in house; host or cells: BL-21 plus RIL cells (E. coli)
T1 sequence (Q99828 1-191): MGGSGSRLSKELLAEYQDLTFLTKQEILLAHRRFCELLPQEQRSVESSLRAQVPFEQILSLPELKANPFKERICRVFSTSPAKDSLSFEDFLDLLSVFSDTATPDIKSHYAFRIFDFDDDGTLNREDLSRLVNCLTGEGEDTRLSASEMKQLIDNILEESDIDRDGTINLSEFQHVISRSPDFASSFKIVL

[2] = molecular target: T2, GST-CIB1 : F-scrambled peptide (Homo sapiens, UniProt Q99828); assay: FP scrambled-peptide counter screen, 1536-well format; format: binding; details: for IC50: read-out: IC50 [μM] (counterscreen); for Confirm? (counterscreen): YES/NO
T2 construct: made in house; host or cells: BL-21 plus RIL cells (E. coli)
T2 sequence (Q99828 1-191): T1 sequence (Q99828 1-191)

[3] = confirmatory screen, qHTS curve class, negative sign = inhibitory curve
[4] = confirmatory screen, read-out: IC50 [μM] (confirmatory screen)
[5] = qHTS FP screen hits, Table S2, negative = inhibition
[6] = qHTS FP screen hits, Table S2, one class per curve where COUNT > 1, negative sign = inhibitory curve
[7] = qHTS FP screen hits, Table S2, read-out: IC50
[8] = counterscreen, qHTS curve class, negative sign = inhibitory curve
[9] = Table S3, confirmatory screen, YES/NO call
[10] = Table S3, confirmatory screen, qHTS curve class, a negative sign marks inhibitory curves
[11] = Table S3, confirmatory screen, negative = inhibition
[12] = Table S3, counterscreen, qHTS curve class, a negative sign marks inhibitory curves
[13] = Table S3, counterscreen, negative = inhibition
[14] = qHTS primary screen hits, Table S2, negative = inhibition
[15] = qHTS primary screen hits, Table S2, negative sign = inhibitory curve, several classes where COUNT > 1
[16] = qHTS primary screen hits, Table S2, read-out: IC50
[17] = Table S3, confirmatory screen, read-out: IC50 [μM] (confirmatory screen)
[18] = qHTS primary screen hits, Table S2, negative sign = inhibitory curve

Efficacy (%) (confirmatory screen) ([1]; confirmatory screen) | Confirm? (confirmatory screen) ([1]; confirmatory screen, YES/NO) | Curve Class (confirmatory screen) [1, 3] | IC50 [1, 4] [µM] | Efficacy (%) (counterscreen) ([2]; counterscreen) | Curve Class (counterscreen) [2, 8] | IC50 ([2]; counterscreen) [µM] | Curve Class [1, 15] | SMILES | Curve Class (confirmatory screen) [1, 10] | Efficacy (%) (confirmatory screen) [1, 11] | Curve Class (counterscreen) [2, 12] | Efficacy (%) (counterscreen) [2, 13] | IC50 ([2]; Table S3, counterscreen) [µM] | Efficacy (%) [1, 14] [%] | IC50 [1, 16] [µM] | also measured
 |  |  |  |  |  |  |  | O=C(O)C(F)(F)F.O=S(=O)(NCc1nccs1)c1ccc(Nc2nc(-c3ccccc3)cs2)cc1 [NCGC00262383-01] | -2.2 | -80 | -2.2 | -83 | 50.1 |  |  | Confirm? (confirmatory screen) [1, 9]: YES; Efficacy (%) [1, 5]: -60%; Curve Class [1, 6]: -2.2; IC50 [1, 7]: 50.1 µM
 |  |  |  |  |  |  |  | CNc1oc(-c2c[nH]c3ccccc23)nc1C#N.O=C(O)C(F)(F)F [NCGC00262511-01] | -3 | -55 | -2.4 | -53 | 28.2 | -19 | 15.8 | Confirm? (confirmatory screen) [1, 9]: YES; IC50 [1, 17]: 35.5 µM; Curve Class [1, 18]: -1.4
-117 | YES | -1.1 | 22.4 | -35 | -1.4 | 12.6 | -1.1 | Cl.Nc1cc(C(F)(F)F)ccc1S [NCGC00262926-01] |  |  |  |  |  | -84 | 28.2 | Confirm? (counterscreen) ([2]; counterscreen): YES
 |  |  |  |  |  |  | -1.4 | Cn1cc(-c2[nH]c3cc(NC(=O)[C@H](N)C4CCCCC4)cc4c3c2C=NNC4=O)cn1 [NCGC00263132-02] | -2.2 | -85 | -2.1 | -107 | 79.4 | -24 | 4.2 | Confirm? (confirmatory screen) [1, 9]: YES; IC50 [1, 17]: 50.1 µM
-56 | YES | -1.2 | 14.1 | -40 | -1.2 | 15.8 |  | CC(C)c1ccccc1Cc1cc(C(=O)Nc2ccc(S(=O)(=O)c3ccccc3C(C)(C)C)cc2)c(O)c(O)c1O [NCGC00263208-01] |  |  |  |  |  | -27 | 15.2 | Curve Class [1, 18]: -2.4
 |  |  |  |  |  |  |  | Cc1ccc(S(=O)(=O)Nc2cc3c(cc2C(=O)Nc2nc(-c4ccccc4)cs2)OCO3)cc1.O=C(O)C(F)(F)F [NCGC00263702-01] | 4 | -44 |  | 111 | 44.7 | -40 | 39.8 | Curve Class [1, 18]: -2.2
-67 | YES | -2.4 | 12.6 | -48 | -2.2 | 25.1 | -1.4 | Cl.O=[N+]([O-])c1ccc(CNc2ccc(S(=O)(=O)Nc3nccs3)cc2)c(O)c1 [NCGC00273519-01] |  |  |  |  |  | -24 | 7.9 | 
-49 | YES | -2.4 | 22.4 | -43 | -2.2 | 50.1 | -1.4 | Cl.O=[N+]([O-])c1cccc(CNc2ccc(S(=O)(=O)Nc3nccs3)cc2)c1O [NCGC00273554-01] |  |  |  |  |  | -27 | 7.1 | 
-48 | YES | -2.4 | 50.1 | -36 | 4 |  | -1.4 | Cl.O=S(=O)(Nc1nccs1)c1ccc(NCc2cc(Cl)ccc2O)cc1 [NCGC00273561-01] |  |  |  |  |  | -27 | 20 | Confirm? (counterscreen) ([2]; counterscreen): YES
 |  |  |  |  |  |  | -1.4 | Cl.O=S(=O)(Nc1nccs1)c1ccc(NCc2cc(Cl)cc(Br)c2O)cc1 [NCGC00273965-01] |  |  |  |  |  | -33 | 11.2 | CONFIRMATORY SCREEN Efficacy (%) ([1]; confirmatory screen): -19%; CONFIRMATORY SCREEN Curve Class ([1]; confirmatory screen, qHTS curve class): 4; COUNTERSCREEN Efficacy (%) ([2]; counterscreen): 0%; COUNTERSCREEN Curve Class ([2]; counterscreen, qHTS curve class): 4
-83 | YES | -2.2 | 22.4 | -37 | -1.2 | 35.5 |  | CC1=NN(c2ccc(C)c(C)c2)C(=O)/C1=N/Nc1cccc(-c2cccc(C(=O)O)c2)c1O [NCGC00274067-01] |  |  |  |  |  |  |  | Efficacy (%) [1, 5]: -69%; IC50 [1, 7]: 44.7 µM
 |  |  |  |  |  |  |  | COc1cccc(CN(C)c2ccc(S(=O)(=O)Nc3nccs3)cc2)c1O.O=C(O)C(F)(F)F [NCGC00318978-01] | -2.4 | -35 | -2.4 | -33 | 39.8 |  |  | Confirm? (confirmatory screen) [1, 9]: YES; IC50 [1, 17]: 44.7 µM; Efficacy (%) [1, 5]: -24%; IC50 [1, 7]: 17.8 µM

SMILES | Efficacy (%) (confirmatory screen) ([1]; confirmatory screen) | Confirm? (confirmatory screen) ([1]; confirmatory screen, YES/NO) | Curve Class (confirmatory screen) [1, 3] | IC50 [1, 4] [µM] | Efficacy (%) (counterscreen) ([2]; counterscreen) | Curve Class (counterscreen) [2, 8] | IC50 ([2]; counterscreen) [µM] | Curve Class [1, 15] | Curve Class (confirmatory screen) [1, 10] | Efficacy (%) (confirmatory screen) [1, 11] | Curve Class (counterscreen) [2, 12] | Efficacy (%) (counterscreen) [2, 13] | IC50 ([2]; Table S3, counterscreen) [µM] | Efficacy (%) [1, 14] [%] | IC50 [1, 16] [µM] | also measured
N#Cc1ccc(NS(=O)(=O)c2ccc(Nc3nc(-c4ccccc4)cs3)cc2)cc1.O=C(O)C(F)(F)F [NCGC00262382-01] | -103 | YES | -2.1 | 44.7 | -84 | -2.2 | 44.7 |  |  |  |  |  |  |  |  | Efficacy (%) [1, 5]: -59%; Curve Class [1, 6]: -2.2; IC50 [1, 7]: 70.8 µM
NS(=O)(=O)c1ccc(Nc2nc(-c3ccccc3)cs2)cc1.O=C(O)C(F)(F)F [NCGC00262411-01] |  |  |  |  |  |  |  | -2.2 | -2.2 | -84 | -2.1 | -98 | 44.7 | -58 | 50.1 | Confirm? (confirmatory screen) [1, 9]: YES
Cc1ccc(S(=O)(=O)Nc2ccc(Br)cc2C(=O)Nc2nc(-c3ccccc3)cs2)cc1.O=C(O)C(F)(F)F [NCGC00262989-01] |  |  |  |  |  |  |  | -2.4 | 2.4 | 47 |  | 243 | 35.5 | -26 | 20 | 
COc1ccc(-n2ncc3c2CCCC3NC(=O)c2ccccc2Cl)cc1.O=C(O)C(F)(F)F (centres unmarked) [NCGC00273443-01] |  |  |  |  |  |  |  | -2.4 | 4 | -11 | 4 | 0 |  | -29 | 25.1 | 
COc1ccc(-n2ncc3c2CCCC3NC(=O)c2ccccc2F)cc1.O=C(O)C(F)(F)F (centres unmarked) [NCGC00273507-01] |  |  |  |  |  |  |  | -2.2 | 2.4 | 22 | 4 | 13 |  | -45 | 39.8 | 
Nc1ccc(CNc2ccc(S(=O)(=O)Nc3nccs3)cc2)c(O)c1.O=C(O)C(F)(F)F [NCGC00273962-01] | -75 | YES | -3 | 89.1 | -61 | -2.2 | 50.1 |  |  |  |  |  |  | -29 | 39.8 | Curve Class [1, 18]: -2.4
O=C(O)C(F)(F)F.O=S(=O)(Nc1nccs1)c1ccc(NCc2cc(F)cc(Cl)c2O)cc1 [NCGC00273967-01] | -40 | YES | -1.4 | 31.6 | 170 | 3 | 39.8 | -1.4 |  |  |  |  |  | -28 | 1.8 | Confirm? (counterscreen) ([2]; counterscreen): YES
O=C(O)C(F)(F)F.O=S(=O)(Nc1nc2ccccc2s1)c1ccc(NCc2ccc(Br)cc2O)cc1 [NCGC00319026-01] | -45 | YES | -2.4 |  | -15 | 4 |  |  |  |  |  |  |  |  |  | Efficacy (%) [1, 5]: -50%; Curve Class [1, 6]: -2.2; IC50 [1, 7]: 39.8 µM; Confirm? (counterscreen) ([2]; counterscreen): YES
Cc1cc(SCc2sc(-c3ccc(Cl)c(Cl)c3)nc2C)ccc1OCC(=O)O.O=C(O)C(F)(F)F [NCGC00319075-01] | -74 | YES | -3 | 35.5 | 78 |  | 79.4 |  |  |  |  |  |  | -41 | 34 | Confirm? (counterscreen) ([2]; counterscreen): YES

Reference: PMC11249646, “Small-Molecule Disruptors of the Interaction between Calcium- and Integrin-Binding Protein 1 and Integrin αIIbβ3 as Novel Antiplatelet Agents” (ACS Pharmacology & Translational Science, 2024)
